Data: patent US20160263110A1 (priority 2013, published 2016)
Values joined by “and” are separate entries in the source; they are usually repeats but may differ in a detail not shown here. Equal values may be shown once. “Also recorded” adds a separate entry of the source. Read-outs that look alike come from different tables or passages of the source.

Columns and labels:
ALS mouse model = conditions: list of drugs tested in ALS, Zoccolella et al. 2009; cited from earlier work
[1] = list of drugs tested in ALS, Zoccolella et al. 2009; cited from earlier work
ALS patients = conditions: list of drugs tested in ALS, Zoccolella et al. 2009; cited from earlier work
[2] = test system: B6SJL-Tg SOD1G93A female mice; conditions: 30 mg/kg/day; from 90 to 120 days
[3] = test system: human cord blood mast cells; conditions: cited from earlier work
[4] = test system: B6SJL-Tg SOD1G93A female mice
Non-Tg SOD1G93A mice = assay: negative intervention control in Non-Tg SOD1G93A mice; conditions: 100 mg/kg/day
[5] = safety data in non-oncology indications; assay type: in vivo
SOD1G93A rats = assay: ALS model in SOD1G93A rats: disease onset and survival
[6] = test system: B6SJL-Tg SOD1G93A female mice; conditions: for Age of onse, Averages / Age of deal, Averages: average of 8 mice; for Age of onse, Averages: control average 101.25; for Age of deal, Averages: control average 135

Structure (SMILES): CC/C(=C(\c1ccccc1)c1ccc(OCCN(C)C)cc1)c1ccccc1 [Tamoxifen]
- Mouse model (ALS mouse model): Overall positive
- Human Safety [1]: Relatively safe
- Benefits (ALS patients): survival benefit

Structure (SMILES): Nc1nc2ccc(OC(F)(F)F)cc2s1 [riluzole, 6-(trifluoromethoxy)benzothiazol-2-amine]
- Benefits (ALS patients): Positive transient impact

Structure (SMILES): Cc1ccc(NC(=O)c2ccc(CN3CCN(C)CC3)cc2)cc1Nc1nc(-c2cccnc2)cs1 [masitinib, 4-(4-methylpiperazin-1-ylmethyl)-N-[4-methyl-3-(4-pyridin-3ylthiazol-2-ylamino)phenyl]benzamide]
- weight loss versus Tg Ctrl [2]: reduced weight loss during the first stage of the disease
- FccRI-mediated degranulation of human cord blood mast cells [3]: inhibition
- hind-limb grip strength curve versus Tg Ctrl ([4]; 30 mg/kg/day): significantly improved the grip strength curve
- hind-limb grip strength versus Tg Ctrl ([4]; 100 mg/kg/day, from 90 to 120 days): improved the grip strength during the first stage of the disease
- results in Non-Tg animals, masitinib versus water (Non-Tg SOD1G93A mice): showed similar results to one another
- tolerability, difference between doses ([5]; 3 mg/kg/day versus 6 mg/kg/day): no obvious difference
- tolerability ([5]; dosage up to 6 mg/kg/day): well-tolerated
- survival without paralytic symptoms or weight loss (two rats of the group) (SOD1G93A rats; 40 mg/kg oral): 7 months
- early paralysis and death (two rats of the group) (SOD1G93A rats; 40 mg/kg oral once a day Monday to Friday): died before week 6
- survival compared to control (vehicle) (SOD1G93A rats; 40 mg/kg oral, 5 times a week, 3 times a week from week 6, male rats from age 120 days, n=6): prolonged the survival; also recorded: survived longer
- disease onset compared to vehicle (SOD1G93A rats; 40 mg/kg oral, after week 6): develop the disease later
- median survival compared with positive control group ([6]; 30 mg/kg/day): higher
- Age of onse ([6]; age of symptoms onset, individual mice, 100 mg/kg/day oral gavage Monday-Friday from 90 days old, 100 mg/kg/day): 109 (2×) and 111 (5×) and 115
- Age of onse, Averages ([6]; 30 mg/kg/day): 111.375
- Age of deal, Averages ([6]; 30 mg/kg/day): 139.625
- Age of onse, Averages ([6]; 100 mg/kg/day): 111
- Age of deal, Averages ([6]; 100 mg/kg/day): 132.125
- symptoms onset versus positive control ([6]; both doses, 30 or 100 mg/kg/day): significant delay of symptoms onset
- survival versus positive control ([6]; righting reflex as surrogate for survival): trend to improve survival
